Assay type in all cases: cell-based, soya bean (Glycine max (L.) Merrill)
In series [1] the test system is soya bean embryogenic tissues. Description: Bleaching and growth of soya bean embryogenic tissues on medium with HPPD inhibitor. The note with it: tissues transferred for selection on isoxaflutole, D20 medium, 2 mg/l. The procedure: The same selection method was developed for the HPPD inhibitors, with a D20 medium comprising 2 mg/l of isoxaflutole or 0.5 to 5 mg/l of diketonitriles. The gene for tolerance to HPPD inhibitors which was used as a selection marker is pCH73 or pCH94 represented in FIG. 1. 10 to 15 days prior to the bombardment, the isoxaflutole or the diketonitriles are introduced into the D20 medium, at the abovementioned concentrations, so as to bleach the tissues. After bombardment, the tissues are placed directly in the same D20 medium comprising […] of isoxaflutole or diketonitrile (between 0.5 and 5 mg/l) and transferred into fresh medium every 15 days. After 4 transfers onto the isoxaflutole. green calluses are identified and amplified as described in Example 1. The time required for producing calluses of cells which are competent for the bombardment is 3 and a half months. The selection of the transformed cells (green calluses) occurs approximately 6 months after the initiation of the calluses for the transformation. […] This is due to the fact that the absence of carotenoids, of chlorophyll and of tocopherols is […] to the growth of tissues.

Series [2] relates to soya bean proliferative embryogenic tissues. Description: Transformation of soya bean embryogenic tissues by particle bombardment, HPPD inhibitor selection on FNL medium (green calluses). The note with it: for mean number of green calluses selected per transformation trial: bleached tissues according to the invention, pooled over both plasmids. From the text: In order to improve the selection process according to the invention, an attempt was made to decrease the number of tissue transfers and the time required for producing calluses of competent cells and green calluses selected after bombardment. To this effect, the D20 medium previously used was replaced with a modified FNL medium which allows rapid proliferation of the tissues. The FNL medium has been described by Samoylov, Tucker, Thibaud-Nissen & Parrott in: A liquid-medium-based protocol for rapid regeneration from embryogenic soya bean cultures: Plant Cell Rep, 18: 49-54, 1998. This medium makes it possible to produce tissues ready for bombardment more rapidly, greater embryogeny and shorter transfer cycles. Composition of the FNL medium: Na2EDTA: 37.24 mg/l; FeSO4, 7H2O: 27.84 mg/l; MgSO4, 7H2O: 370 mg/l; MnSO4. H2O: 16.9 mg/l; ZnSO4, H2O: 8.6 mg/l; CuSO4. 7H25O: 0.025 mg/l; CaCl2. 2H2O: 440 mg/l; KI: 0.83 mg/l; CoCl2. 6H2O: 0.025 mg/l; KH2PO4: 170 mg/l; H3BO3: 6.2 mg/l; Na2MoO4. 2H2O: 0.25 mg/l; myo-inositol: 100 mg/l; nicotinic acid: 1 mg/l; pyridoxine-HCl: 1 mg/l; thiamine-HCl: 10 mg/l; (NH4)2SO4: 460 mg/l; KNO3: 2820 mg/l; asparagine: 670 mg/l; 1% sucrose; 2.4-D: 10 mg/l; 0.3% […]; pH 5.7. […] The bombardment of tissues bleached with isoxaflutol according to the invention requires only one transfer of calluses before the selected green calluses are produced, against 4 when using the D20 medium. The time required for producing calluses from cells which are competent for the bombardment is 2 months, the transformed green calluses being selected approximately 3 months after the initiation of the calluses for transformation.

For series [3] the test system is unchanged. The series can be described thus: Transformation of soya bean embryogenic tissues by particle bombardment, HPPD inhibitor selection on D20 medium (green calluses). The note with it: bleaching after bombardment.
Series [4] shares this test system. The description is as above. To be noted: bleaching before bombardment. From the text: The technology used for transforming soya bean has been described by Santarem & Finer: Transformation of soya bean (Glycine max (L.) Merrill) using proliferative embryogenic tissue maintained on semi-solid medium. In Vitro Cell. Dev. Biol. Plant 35 451-455, 1999. It comprises the steps hereinafter.
Immature zygotic embryos (from 3 to 4 mm) are aseptically dissected and placed with the adaxial side upwards in a medium comprising 2.4D (D40).
After culturing for 3 weeks in D40 medium, the cotyledons are transferred onto a D20 medium which comprises essentially the same elements as the D40 medium, with the exception of the 2.4D concentration, which is decreased to […], and the sucrose concentration, which is decreased from 60 g/l to 30 g/l, at pH 5.7.
On this medium, the somatic embryos begin to proliferate in the form of compact aggregates or clumps. The embryogenic clumps are then transferred every two weeks onto a new D20 medium in order to increase the production of tissues. Five or six transfers (approximately 3 months) onto this medium are necessary in order to optimize their competence at transformation. The use of embryogenic tissues which are at an earlier stage produces much poorer results.
Particle bombardment is used for transforming the embryogenic tissues.
Particle preparation: flnctionalized tungsten (M17) particles are prepared according to U.S. Pat. No. 6,068,980. The particles are functionalized by grafting aminated silicones as the vectorization element, and washed in absolute ethanol. 2.5 mg of particles in ethanol are mixed with 3 μg of DNA. After precipitation, the particles are pipetted and used for two shots with a particle gun of the PIG type described by Finer, Vain, Lones and McMullen in: Development of the Particle Inflow Gun for DNA delivery to plant cells. Plant Cell Rep. 11: 323-328, 1992.
Before the bombardment, the tissues are dried under vacuum under a laminar-flow hood for 5 to 10 min, and then placed between two 500 μm screens and bombarded twice.
The same selection method was developed for the HPPD inhibitors, with a D20 medium comprising 2 mg/l of isoxaflutole or 0.5 to 5 mg/l of diketonitriles. The gene for tolerance to HPPD inhibitors which was used as a selection marker is pCH73 or pCH94 represented in FIG. 1.
In order to avoid handling tissues and to gain time, the bombarded calluses are placed on sterile gauze screen fixed with two metal rings which enable direct contact between the embryogenic tissues and the solid medium. The gauze screens are transferred onto fresh media every 15 days until green calluses are observed. It is understood that the principle of callus transfer described above is not limited to soya bean calluses and to selection with hygromycin, but may be used for any method for culturing tissues and cells suspensions which requires frequent changing of culture medium.
10 to 15 days prior to the bombardment, the isoxaflutole or the diketonitriles are introduced into the D20 medium, at the abovementioned concentrations, so as to bleach the tissues. After bombardment, the tissues are placed directly in the same D20 medium comprising […] of isoxaflutole or diketonitrile (between 0.5 and 5 mg/l) and transferred into fresh medium every 15 days. After 4 transfers onto the isoxaflutole. green calluses are identified and amplified as described in Example 1. The time required for producing calluses of cells which are competent for the bombardment is 3 and a half months. The selection of the transformed cells (green calluses) occurs approximately 6 months after the initiation of the calluses for the transformation.

[5] abbreviates: bleaching before bombardment, attempt 1.
Where [6] appears, read: bleaching before bombardment, attempt 2.
Where [7] appears, read: bleaching before bombardment, attempt 3.

With `CS(=O)(=O)c1cc(C(F)(F)F)ccc1C(=O)c1cnoc1C1CC1` [isoxaflutole], in series [1], the “bleaching of the tissues” value was “rapidly bleached” and the “inhibition of growth of the tissues” value is reported as “without any inhibition of growth being observed”.
Turning to “pCH73: plasmid carrying gene for tolerance to HPPD inhibitors: sunflower RuBisCo ssu promoter, optimized transit peptide, HPPDW336, NOS terminator; SEQ ID NO 1”, the “mean number of green calluses selected per transformation trial” value in series [2] stood at 1 per shot. In addition, the “number of green calluses selected” value in series [2] (bleaching after bombardment, attempt 1) stood at 0.25; in series [2] (bleaching after bombardment, attempt 2), 0; in series [2] (setting [5]) it was 1; in series [2] (setting [6]), 1.5; in series [2] (setting [7]), 0.33. Also, the “number of green calluses identified” value in series [3] (attempt 1) is 0; in series [3] (attempt 2), 0; in series [3] (attempt 3) it was 0.25; in series [4] (attempt 1), 0; in series [4] (attempt 2) it was 0.5; in series [4] (attempt 3), 0.25.
“pCH94: plasmid carrying gene for tolerance to HPPD inhibitors: Arabidopsis histone promoter, TEV enhancer, optimized transit peptide, HPPDW336, NOS terminator; SEQ ID NO 2”: in series [2], the “mean number of green calluses selected per transformation trial” value worked out at 1 per shot. The “number of green calluses selected” value in series [2] (setting [5]) is recorded as 1; in series [2] (setting [6]), 1; in series [2] (setting [7]), 0.33; in series [2] (bleaching before bombardment, attempt 4) it was 1.5. Besides, the “number of green calluses identified” value came to 0.67 in series [3] (attempt 1); 0.33 in series [3] (attempt 2); 0.25 in series [3] (attempt 3); 0.67 in series [4] (attempt 1); 1 in series [4] (attempt 2); 2 in series [4] (attempt 3).

Values taken from patent US6791014B2, “Use of HPPD inhibitors as selection agents in plant transformation” (Aventis Cropscience, S.A., priority 2000, dated 2004).
